Experimental data: US11364275B2, “Linear lipopeptide paenipeptins and methods of using the same” (priority 2017, dated 2022)
Converted amounts (≈) assume the structure as drawn. Where two headings read alike, the source gives them in different places. Where a SMILES comes first, the peptide text is derived from it. [ ]: non-standard residue; d: D form. The star is where a group is joined. Cha = N[C@@H](CC1CCCCC1)C(=O)O; Decanoyl = CCCCCCCCCC(=O)*; Heptanoyl = CCCCCCC(=O)*; Octanoyl = CCCCCCCC(=O)*; Dab = NCC[C@H](N)C(=O)O

Columns and labels:
[1] = system: Acinetobacter baumannii ATCC 19606; assay type: cell-based; conditions: ATCC 19606
Experimental: (§4) The minimum inhibitory concentration (MIC) of paenipeptin analogues was determined using the broth microdilution method (Wirker, M. A. Methods for Dilution Antimicrobial Susceptibility Tests for Bacteria that Grow Aerobically: Approved Standard M07-A8; Clinical and Laboratory Standards Institute, Wayne, Pa., 2009). Seven reference strains (Acinetobacter baumannii ATCC 19606, Escherichia coli ATCC 25922, Klebsiella pneumoniae ATCC 13883, Pseudomonas aeruginosa ATCC 27853, Enterococcus faecium ATCC 19434, Staphylococcus aureus ATCC 29213 and methicillin-resistant S. aureus ATCC 43300) were subjected to MIC testing.
(§5) Paenipeptin analogues were two-fold diluted in tryptic soy broth (TSB; Becton Dickinson) and mixed with an equal volume of bacterial suspensions in TSB containing approximately 1.5×10^5 colony-forming units (CFU)/mL in a clear UV-sterilized 96-well microtiter plate (NBS, Corning Inc., Corning, N.Y.). […] The microtiter plate was incubated at 37° C. for 18-20 h.

[2] = system: Escherichia coli ATCC 25922; assay type: cell-based; conditions: ATCC 25922
[3] = system: Klebsiella pneumoniae ATCC 13883; assay type: cell-based; conditions: ATCC 13883
Experimental: as §4, §5

[4] = system: Pseudomonas aeruginosa ATCC 27853; assay type: cell-based; conditions: ATCC 27853
Experimental: as §4, §5

[5] = system: Staphylococcus aureus ATCC 29213; assay type: cell-based; conditions: ATCC 29213
[6] = system: methicillin-resistant S. aureus ATCC 43300; assay type: cell-based, Staphylococcus aureus; conditions: ATCC 43300
A. baumannii ATCC 19606 = assay type: cell-based, Acinetobacter baumannii
From the text: (§1) The surviving cells from each antimicrobial concentration with no visible growth were enumerated by plating on tryptic soy agar (TSA). MBC was defined as the lowest concentration of the antimicrobial agent that led to at least a 99.9% reduction in the number of viable bacterial cells relative to the initial inoculum. There were three independent experiments with one replicate in each experiment.

K. pneumoniae ATCC 13883 = assay type: cell-based, Klebsiella pneumoniae
From the text: as §1

P. aeruginosa ATCC 27853 = assay type: cell-based, Pseudomonas aeruginosa
From the text: as §1

E. faecium ATCC 19434 = assay type: cell-based, Enterococcus faecium
From the text: as §1

S. aureus ATCC 29213 [7] = assay type: cell-based, Staphylococcus aureus
From the text: as §1

S. aureus ATCC 43300 = assay type: cell-based, Staphylococcus aureus
From the text: as §1

rabbit red blood cells = assay: Hemolytic activity; assay type: cell-based; conditions: for Hemolysis: relative to Triton X-100
Experimental: Hemolytic activity was evaluated using defibrinated rabbit blood in a 96-well plate as described previously. A nonionic surfactant Triton X-100, which is capable of lysing red blood cells (RBCs), was used at 0.1% as a positive control. Briefly, rabbit blood (Hardy Diagnostics, Santa Maria, Calif.) was diluted with phosphate buffered saline (PBS; pH 7.2) at a 1:19 ratio (v/v) and free hemoglobin was removed by washing RBCs and centrifugation four times at 1,000×g at 4° C. for 5 min. Aliquots (50 μL) of washed RBCs were incubated with 150 μL two-fold dilutions of paenipeptin analogues at final concentrations of 16-128 μg/mL at 37° C. for 30 min in a microtiter plate (NBS, Corning Inc.). After incubation, treated RBCs were gently mixed by repeated pipetting. Aliquots (20 μL) of the cell suspension were mixed with 200 μL PBS in a new 96-well plate and centrifuged at 2,204×g for 10 min. The supernatant was transferred to a new 96-well plate for absorbance measurement at 415 nm using a Cell Imaging Multimode Reader (Cytation 3, BioTek; Winooski, Vt.). The percent hemolysis observed after exposure to each paenipeptin analogue was calculated relative to Triton X-100.

[8] = system: methicillin-resistant S. aureus strain LAC biofilm; assay: Established catheter-associated biofilm in vitro; assay type: cell-based, Staphylococcus aureus; conditions: data not shown
Experimental: Each well was inoculated with the methicillin-resistant S. aureus strain LAC or P. aeruginosa ATCC 27853 to an OD600nm of 0.05. […] After 72 h of exposure, catheters were rinsed with PBS, followed by sonication (for S. aureus) or vigorous vortexing (for P. aeruginosa) to quantitatively recover adherent bacteria. Viable S. aureus or P. aeruginosa cells were enumerated by plating serial dilutions on TSA.

S. aureus ATCC 29213 [9] = assay type: cell-based, Staphylococcus aureus; conditions: ATCC 29213
Experimental: (§2) The impact of human serum on the antibacterial activity of selected paenipeptin analogues was determined using a procedure similar to that used for MIC determination as described above except that the microbiological medium was replaced by human serum (MP Biomedicals, Solon, Ohio). Paenipeptin analogues were two-fold diluted in 100% human serum and mixed with an equal volume of 90% serum containing approximately 1.5×10^5 CFU/mL of E. coli ATCC 25922 or S. aureus ATCC 29213. The final paenipeptin concentrations ranged from 0.5-64 μg/mL in 95% serum. The MIC in the presence of serum was then tested as described above.

S. aureus ATCC 29213 [10] = conditions: cited from earlier work
[11] = system: Enterococcus faecium ATCC 19434; assay type: cell-based; conditions: ATCC 19434
Experimental: as §4, §5

E. coli ATCC 25922 [12] = assay type: cell-based, Escherichia coli; conditions: ATCC 25922
Experimental: as §2

[13] = system: Escherichia coli ATCC 25922; assay type: in vitro ADME
Experimental: To determine the stability of peptides in human serum, paenipeptin analogues were added into 100% human serum to a final concentration of 64 μg/ml. The mixtures were incubated at 37° C. and samples were withdrawn at 0, 6, 12 and 24 h. […] The residual antibacterial activity after incubation in human serum was compared to the non-treated control.

[14] = system: Acinetobacter baumannii ATCC 19606; assay: MIC of antibiotics with or without paenipeptin analogues (potentiation); assay type: cell-based; conditions: A. baumannii ATCC 19606
From the text: (§3) Gram-negative bacteria, including Acinetobacter and Klebsiella, are intrinsically resistant to the hydrophobic antibiotic rifampicin.

[15] = system: Klebsiella pneumoniae ATCC 13883; assay: as above; assay type: cell-based; conditions: K. pneumoniae ATCC 13883
From the text: as §3

E. coli ATCC 25922 [16] = assay type: cell-based, Escherichia coli
From the text: as §1

Compound	MIC [1]	MIC [2]	Minimum inhibitory concentration [2]	MIC [3]	MIC [4]	MIC [5]	Minimum inhibitory concentration [5]	MIC [6]	MBC (A. baumannii ATCC 19606)	MBC (K. pneumoniae ATCC 13883)	MBC (P. aeruginosa ATCC 27853)	MBC (E. faecium ATCC 19434)	MBC (S. aureus ATCC 29213 [7])	MBC (S. aureus ATCC 43300)	Hemolysis (rabbit red blood cells; 16 μg/mL)	Hemolysis (rabbit red blood cells; 32 μg/mL)	Hemolysis (rabbit red blood cells; 64 μg/mL)	hemolytic activity (in words) (rabbit red blood cells; 128 μg/mL)	Hemolysis (rabbit red blood cells; 128 μg/mL)	Minimum inhibitory concentration (S. aureus ATCC 29213 [9])	further results
CCCCCCCCCC(=O)N[C@@H](CCN)C(=O)N[C@H](C(=O)N[C@@H](CCN)C(=O)N[C@H](Cc1ccccc1)C(=O)N[C@@H](CC(C)C)C(=O)N[C@@H](CCN)C(=O)N[C@@H](C(=O)N[C@@H](CC(C)C)C(=O)N[C@@H](CO)C(N)=O)C(C)C)[C@@H](C)CC [Analogue 12] (Decanoyl-[Dab]I[Dab][dF]L[Dab][dV]LS-NH2)	0.5 to 2 mg/L	2 to 8 mg/L	2 to 8 mg/L	2 to 4 mg/L	1 to 2 mg/L	2 to 4 mg/L	2 to 4 mg/L	2 to 4 mg/L	0.5 to 2 mg/L	4 to 8 mg/L	2 to 4 mg/L	2 to 4 mg/L	4 to 8 mg/L	2 to 4 mg/L	14.3 ± 4.25%	37.2 ± 8.62%	73.4 ± 7.59%	strong hemolytic activity	93.9 ± 7.57%	–	activity against established catheter-associated biofilm (in words) [8]: no activity
CCCCCCCC(=O)N[C@@H](CCN)C(=O)N[C@H](C(=O)N[C@@H](CCN)C(=O)N[C@H](Cc1ccccc1)C(=O)N[C@@H](CC(C)C)C(=O)N[C@@H](CCN)C(=O)N[C@@H](C(=O)N[C@@H](CC(C)C)C(=O)N[C@@H](CO)C(N)=O)C(C)C)[C@@H](C)CC [Analogue 8, C8-Pat] (Octanoyl-[Dab]I[Dab][dF]L[Dab][dV]LS-NH2)	–	2 to 4 mg/L	2 to 4 mg/L	8 to 16 mg/L	–	8 to 16 mg/L	8 to 16 mg/L	8 to 16 mg/L	16 to 32 mg/L	8 to 16 mg/L	8 to 16 mg/L	16 to 32 mg/L	–	8 to 32 mg/L	0.93 ± 0.45%	1.91 ± 0.25%	6.18 ± 2.48%	–	25.3 ± 4.15%	16 to 32 mg/L	–
MX-2401	–	–	–	–	–	–	–	–	–	–	–	–	–	–	–	–	–	–	–	–	MIC (S. aureus ATCC 29213 [10]; 95% mouse serum): 128 mg/L; MIC (S. aureus ATCC 29213 [10]; microbiological medium): 2 mg/L
CC[C@H](C)[C@H](NC(=O)[C@H](CCN)NC(=O)[C@@H](N)CC1CCCCC1)C(=O)N[C@@H](CCN)C(=O)N[C@H](Cc1ccccc1)C(=O)N[C@@H](CC(C)C)C(=O)N[C@@H](CCN)C(=O)N[C@@H](C(=O)N[C@@H](CC(C)C)C(=O)N[C@@H](CO)C(N)=O)C(C)C [Analogue 16] (H-[Cha][Dab]I[Dab][dF]L[Dab][dV]LS-NH2)	≥32 mg/L	4 to 8 mg/L	4 to 8 mg/L	–	2 to 8 mg/L	>32 mg/L	>32 mg/L	–	–	–	16 to 32 mg/L	–	–	–	0.55 ± 0.75%	0.33 ± 0.83%	0.65 ± 0.62%	non-hemolytic	1.63 ± 0.40%	>64 mg/L	MIC [11]: >32 mg/L; Minimum inhibitory concentration (E. coli ATCC 25922 [12]): 2 mg/L (≈ 1.75 µM); MIC after incubation in human serum at 37° C. [13]: > 32 mg/L; MIC after incubation in human serum at 37° C. ([13]; ATCC 25922, 0 h): 1 to 2 mg/L; MIC after incubation in human serum at 37° C. ([13]; ATCC 25922, 12 h): >32 mg/L; MIC after incubation in human serum at 37° C. ([13]; ATCC 25922, 24 h): >32 mg/L; MIC of ampicillin in the presence of […] μg/ml paenipeptin analogue [14]: 8-16 μg/ml; MIC of clarithromycin in the presence of […] μg/ml paenipeptin analogue [14]: 0.0156 μg/ml; MIC of erythromycin in the presence of […] μg/ml paenipeptin analogue [14]: 0.5 μg/ml; MIC of rifampicin at 2 μg/mL of paenipeptin analogue [14]: 0.0039-0.0078 μg/ml; MIC of vancomycin in the presence of […] μg/ml paenipeptin analogue [14]: 0.5-1 μg/ml; Sensitization factor (clarithromycin) ([14]; 4 μg/mL paenipeptin): 2,048; Sensitization factor (erythromycin) ([14]; 4 μg/mL paenipeptin): 64; Sensitization factor (rifampicin) ([14]; MIC without / with 4 μg/mL paenipeptin): 4,096; MIC of ampicillin in the presence of […] μg/ml paenipeptin analogue [15]: 32 μg/ml; MIC of erythromycin in the presence of […] μg/ml paenipeptin analogue [15]: 0.0625 μg/ml; MIC of rifampicin at 2 μg/mL of paenipeptin analogue [15]: 0.0039 μg/ml; MIC of rifampicin at 4 μg/mL of paenipeptin analogue [15]: <0.00098-0.00195 μg/ml; MIC of vancomycin in the presence of […] μg/ml paenipeptin analogue [15]: >32 μg/ml; Sensitization factor (clarithromycin) ([15]; 4 μg/mL paenipeptin): 2,048-4,096
CCCCCCC(=O)N[C@@H](CCN)C(=O)N[C@@H](Cc1ccccc1)C(=O)N[C@@H](CCN)C(=O)N[C@H](Cc1ccccc1)C(=O)N[C@@H](CC(C)C)C(=O)N[C@@H](CCN)C(=O)N[C@H](CC(C)C)C(=O)N[C@@H](Cc1ccccc1)C(=O)N[C@@H](CO)C(N)=O [Analogue 7] (Heptanoyl-[Dab]F[Dab][dF]L[Dab][dL]FS-NH2)	2 to 4 mg/L	0.5 to 2 mg/L	0.5 to 2 mg/L	–	1 to 2 mg/L	–	–	–	–	–	–	–	8 to 32 mg/L	8 to 16 mg/L	–	5.10 ± 1.26%	18.8 ± 2.44%	–	64.2 ± 3.28%	32 to 64 mg/L	MBC (E. coli ATCC 25922 [16]): 8 to 16 mg/L
